Results from US4532343A, “Aromatic retinoic acid analogues” (SRI International, priority 1982, dated 1985).

Columns and labels:
[1] = tested on: Hamster Tracheal Organ Culture (keratinization); assay: tracheal organ culture assay (reversal of keratinization in hamster tracheal organ culture); format: cell-based; conditions: for Reversal of Keratinization in Hamster Tracheal Organ Culture, Active/Total Cultures: active = neither keratin nor keratohyaline granules seen, or keratohyaline granules alone absent; for Reversal of Keratinization in Hamster Tracheal Organ Culture, Active/Total Cultures (%): percent of active cultures
Method: (§1) The ODC assay measures a compound's ability to prevent the induction of ODC. The tracheal organ culture assay measures a compound's ability to reverse keratinization.
The tracheal organ culture assay is carried out as follows. Tracheas are taken from hamsters that are in very early stages of vitamin A deficiency and placed in organ culture. At the time of culture, the animals are still gaining weight; the tracheal epithelium is generally low columnar or cuboidal, with only occasional patches of squamous metaplasia. Each trachea is opened from the larynx to the carina along the membranous dorsal wall and cultured in a serum-free medium (CMRL-1066; with crystalline bovine insulin, 0.1 μg/ml; hydrocortisone hemisuccinate, 0.1 μg/ml; glutamine, 2 mM; penicillin, 100 units/ml; and streptomycin,100 μg/ml, added). Cultures are gassed with 50% oxygen, 45% nitrogen, and 5% CO2. The culture dishes are rocked at 35.5-36.0 degrees to allow the tracheas contact with both gas and medium. All tracheas are grown in medium containing no retinoid for the first 3 days. At the end of 3 days, some tracheas are harvested; almost all of these tracheas have significant squamous metaplasia, and approximately 60% have keratinized lesions. The remaining tracheas are then divided into different groups which are treated with either: (1) retinoid dissolved in dimethylsulfoxide (final concentration of DMSO in culture medium is never greater than 0.1%) or (2) an equivalent amount of DMSO alone. Culture medium is changed three times a week, and all of the remaining tracheas are harvested at the end of 10 days in culture. Tracheas are fixed in 10% buffered formalin and embedded in paraffin. Cross sections of five micrometers are made through the mid-portion, stained with hematoxylin and eosin, and then scored with a microscope for the presence of keratin and keratohyaline granules, both of which are found in approximately 90% of control cultures that received no retinoid for the entire 10 day culture period.

Ornithine Decarboxylase = assay: ornithine decarboxylase (ODC) assay: inhibition of induction of ODC by 12-O-tetradecanoylphorbol-13-acetate in mouse skin; format: in vivo, mouse (female Charles River CD-1); conditions: topical, 1 hour before TPA (17 nmol)
Method: as §1
The ODC assay is carried out as follows. Female Charles River CD-1 mice from Charles River Breeding Laboratories, Wilmington, Massachusetts, are used (age 7 to 9 weeks). The dorsal hair of the mice is shaved 1 to 2 days before testing, and only mice showing no hair regrowth are used. A single dose of 12-O-tetradecanoylphorbol-13-acetate (TPA) (10.5 μg, 17 nmol) in 0.2 mL of acetone is applied topically to the back of each mouse. The test compound, at one of three dose levels (1.7, 17 and 170 nmol), dissolved in 0.2 mL of acetone is applied 1 hour before the TPA treatment to the test groups; the control group is treated with acetone alone. The mice are killed by cervical dislocation five hours after TPA treatment. Determinations are done in triplicate.
The epidermis is obtained from the sacrificed animals. To obtain sufficient material, the dorsal skins from 2 to 3 mice in each treatment group are pooled. The depilatory agent Nudit® (Helena Rubinstein, New York) is applied to the shaved area of the skin; after 5 minutes, it is washed off thoroughly with cold tap water. Then the skin is excised and plunged immediately into ice-cold water; it is then placed in a 55° C. water bath for 30 seconds and reimmersed in ice-cold water for at least another 30 seconds. The skin is placed epidermis side up on a cold plate, and the epidermis is scraped off with a razor blade. The pooled epidermal sheets are homogenized (Polytron PT-10 homogenizer) at 0° to 4° C. for 15-20 seconds in 50 mM sodium phosphate and 0.1 mM ethylenediaminetetraacetic acid (EDTA), at a volume of 1 mL/skin.
The supernatant fraction remaining after centrifugation of the homogenate at 10,000× g for 30 seconds at 0° C. is used for the enzyme assay. Enzyme activity is determined using the microassay for ODC as described by Verma and Boutwell to measure the release of ^14 CO2 from DL-[1-^14 C]-ornithine (58 mCi/mmol) after incubation with the 10,000× g supernatant. The incubations are carried out by decanting, with a Pasteur pipette, 100 μL of the supernatant containing 100 to 120 μg of protein into two or three 15-mL Corex tubes in a shaking water bath at 37° C. The assay mixture in the tubes consists of 50 μL of 100 mM sodium phosphate buffer (pH 7.2), 10 μL of 4 mM pyridoxal phosphate, 40 μL of 25 mM dithiothreitol, and 1 μL of 0.1 M EDTA. The center wells in the tubes are filled with 200 μL of a 2:1 solution (v/v) of ethanolamine:2-methoxyethanol. The reaction is started by adding 50 μL of substrate (0.5 μCi of DL-[1-^14 C]-ornithine in 2 mM cold ornithine) at 1-minute intervals by injection to each of the stoppered tubes. Incubations are routinely carried out at 37° C. for 30 to 60 minutes. The reaction is stopped by addition of 0.5 ml of 2 M citric acid, and incubation is continued for an additional hour without heating to ensure complete absorption of ^14 CO2.
Radioactivity is measured using a toluene-based scintillant (4 g of PPO and 50 mg of POPOP/L of toluene) in a Beckman LS-250 liquid scintillation counter. Enzyme activity is determined in triplicate and expressed as nanomoles of CO2 released in 30 minutes per milligram of protein. Enzyme activity is linear for the protein concentration used. The protein concentrations of the epidermal extracts are determined by the Lowry procedure, using bovine serum albumin as the standard.

`CCOC(=O)c1ccc(/C(F)=C(C)/C=C/C2=C(C)CCCC2(C)C)cc1` [Example 1, (1Z,3E)-1-(4-carbethoxyphenyl)-1-fluoro-2-methyl-4-(2,6,6-trimethyl-1-cyclohexen-1-yl)-1,3-butadiene] was tested, and the “Reversal of Keratinization in Hamster Tracheal Organ Culture, Active/Total Cultures” value ([1]; Conc 10^-8 M) was 11/12, the “Reversal of Keratinization in Hamster Tracheal Organ Culture, Active/Total Cultures (%)” value (“Reversal … Active/Total Cultures (%)” for short) ([1]; Conc 10^-8 M) was 92% and the “Reversal of Keratinization in Hamster Tracheal Organ Culture, Active/Total Cultures” value ([1]; Conc 10^-9 M) was 10/12. For the same molecule, the “Reversal … Active/Total Cultures (%)” value ([1]; Conc 10^-9 M) was 83%, the “Reversal of Keratinization in Hamster Tracheal Organ Culture, Active/Total Cultures” value ([1]; Conc 10^-10 M) was 6/13 and the “Reversal … Active/Total Cultures (%)” value ([1]; Conc 10^-10 M) was 46%. For the same molecule, the “Inhibition of Induction of Ornithine Decarboxylase by 12-O-Tetradecanoylphorbol-13-acetate in Mouse Skin, % Inhibition of Control” value (shortened to “Inhibition … % Inhibition of Control”) (Ornithine Decarboxylase; Dose 1.7 nmol) was 56% and the “Inhibition … % Inhibition of Control” value (Ornithine Decarboxylase; Dose 17 nmol) was 82%.
With `CC1=C(/C=C/C(C)=C(\F)c2ccc(C(=O)O)cc2)C(C)(C)CCC1` [Example 2, (1Z,3E)-1-(4-Carboxyphenyl)-1-fluoro-2-methyl-4-(2,6,6-trimethyl-1-cyclohexen-1-yl)-1,3-butadiene] the “Reversal of Keratinization in Hamster Tracheal Organ Culture, Active/Total Cultures” value ([1]; Conc 10^-8 M) was 13/13, the “Reversal … Active/Total Cultures (%)” value ([1]; Conc 10^-8 M) was 100% and the “Reversal of Keratinization in Hamster Tracheal Organ Culture, Active/Total Cultures” value ([1]; Conc 10^-9 M) was 12/13. For the same molecule, the “Reversal … Active/Total Cultures (%)” value ([1]; Conc 10^-9 M) was 92%, the “Reversal of Keratinization in Hamster Tracheal Organ Culture, Active/Total Cultures” value ([1]; Conc 10^-10 M) was 5/13 and the “Reversal … Active/Total Cultures (%)” value ([1]; Conc 10^-10 M) was 38%. For the same molecule, the “Inhibition … % Inhibition of Control” value (Ornithine Decarboxylase; Dose 1.7 nmol) was 70% and the “Inhibition … % Inhibition of Control” value (Ornithine Decarboxylase; Dose 17 nmol) was 80%.
With `CCOC(=O)c1ccc(/C=C(C)/C=C/C2=C(C)CCCC2(C)C)c(OC)c1` [Example 3, (E)-1-(4-carbethoxy-2-methoxyphenyl)-2-methyl-4-(2,6,6-trimethyl-1-cyclohexen-1-yl)-1,3-butadiene] the “Reversal of Keratinization in Hamster Tracheal Organ Culture, Active/Total Cultures” value ([1]; Conc 10^-8 M) was 7/7, the “Reversal … Active/Total Cultures (%)” value ([1]; Conc 10^-8 M) was 100% and the “Reversal of Keratinization in Hamster Tracheal Organ Culture, Active/Total Cultures” value ([1]; Conc 10^-9 M) was 5/7. The “Reversal … Active/Total Cultures (%)” value ([1]; Conc 10^-9 M) was 71%, the “Reversal of Keratinization in Hamster Tracheal Organ Culture, Active/Total Cultures” value ([1]; Conc 10^-10 M) was 4/7 and the “Reversal … Active/Total Cultures (%)” value ([1]; Conc 10^-10 M) was 57%. For the same molecule, the “Inhibition … % Inhibition of Control” value (Ornithine Decarboxylase; Dose 1.7 nmol) was 21% and the “Inhibition … % Inhibition of Control” value (Ornithine Decarboxylase; Dose 17 nmol) was 39%.
For `CCOC(=O)c1ccc(/C=C(C)/C=C/C2=C(C)CCCC2(C)C)c(F)c1` [Example 5, (E)-1-(4-Carbethoxy-2-fluorophenyl)-2-methyl-4-(2,6,6-trimethyl-1-cyclohexen-1-yl)-1,3-butadiene], the “Reversal of Keratinization in Hamster Tracheal Organ Culture, Active/Total Cultures” value ([1]; Conc 10^-8 M) was 6/6, the “Reversal … Active/Total Cultures (%)” value ([1]; Conc 10^-8 M) was 100% and the “Reversal of Keratinization in Hamster Tracheal Organ Culture, Active/Total Cultures” value ([1]; Conc 10^-9 M) was 6/7. For the same molecule, the “Reversal … Active/Total Cultures (%)” value ([1]; Conc 10^-9 M) was 86%, the “Reversal of Keratinization in Hamster Tracheal Organ Culture, Active/Total Cultures” value ([1]; Conc 10^-10 M) was 4/7 and the “Reversal … Active/Total Cultures (%)” value ([1]; Conc 10^-10 M) was 56%. For the same molecule, the “Inhibition … % Inhibition of Control” value (Ornithine Decarboxylase; Dose 1.7 nmol) was 8% and the “Inhibition … % Inhibition of Control” value (Ornithine Decarboxylase; Dose 17 nmol) was 46%.
With `CC1=C(/C=C/C(C)=C/c2ccc(C(=O)O)cc2F)C(C)(C)CCC1` [Example 6, (E)-1-(4-Carboxy-2-fluorophenyl)-2-methyl-4-(2,6,6-trimethyl-1-cyclohexen-1-yl)-1,3-butadiene] the “Reversal of Keratinization in Hamster Tracheal Organ Culture, Active/Total Cultures” value ([1]; Conc 10^-8 M) was 6/6, the “Reversal … Active/Total Cultures (%)” value ([1]; Conc 10^-8 M) was 100% and the “Reversal of Keratinization in Hamster Tracheal Organ Culture, Active/Total Cultures” value ([1]; Conc 10^-9 M) was 12/12. For the same molecule, the “Reversal … Active/Total Cultures (%)” value ([1]; Conc 10^-9 M) was 100%, the “Reversal of Keratinization in Hamster Tracheal Organ Culture, Active/Total Cultures” value ([1]; Conc 10^-10 M) was 3/11 and the “Reversal … Active/Total Cultures (%)” value ([1]; Conc 10^-10 M) was 27%. For the same molecule, the “Inhibition … % Inhibition of Control” value (Ornithine Decarboxylase; Dose 1.7 nmol) was 37% and the “Inhibition … % Inhibition of Control” value (Ornithine Decarboxylase; Dose 17 nmol) was 78%.
